Patent US11124494B2, “Aryl heterocyclic piperidinone formyl peptide 2 receptor and formyl peptide 1 receptor agonists” (Bristol-Myers Squibb Company, priority 2017, dated 2021)

Target: human FPR2 receptors (Homo sapiens (Human), UniProt P25090)
Experiment: FPR2 cyclic adenosine monophosphate (cAMP) assay
Format: cell-based
Conditions: hFPR2 Assay, CHO cells overexpressing human FPR2; potency bins; read-out: hFPR2 agonist activity EC50 values
Experimental: FPR2 and FPR1 Cyclic Adenosine Monophosphate (cAMP) Assays. A mixture of forskolin (5 μM final for FPR2 or 10 μM final for FPR1) and IBMX (200 μM final) were added to 384-well Proxiplates (Perkin-Elmer) pre-dotted with test compounds in DMSO (1% final) at final concentrations in the range of 1.7 nM to 100 μM. Chinese Hamster Ovary cells (CHO) overexpressing human FPR1 or human FPR2 receptors were cultured in F-12 (Ham's) medium supplemented with 10% qualified FBS, 250 μg/ml zeocin and 300 μg/ml hygromycin (Life Technologies). Reactions were initiated by adding 2,000 human FPR2 cells per well or 4,000 human FPR1 cells per well in Dulbecco's PBS (with calcium and magnesium) (Life Technologies) supplemented with 0.1% BSA (Perkin-Elmer). The reaction mixtures were incubated for 30 min at room temperature. The level of intracellular cAMP was determined using the HTRF HiRange cAMP assay reagent kit (Cisbio) according to manufacturer's instruction. Solutions of cryptate conjugated anti-cAMP and d2 flurorophore-labelled cAMP were made in a supplied lysis buffer separately. Upon completion of the reaction, the cells were lysed with equal volume of the d2-cAMP solution and anti-cAMP solution. After a 1-h room temperature incubation, time-resolved fluorescence intensity was measured using the Envision (Perkin-Elmer) at 400 nm excitation and dual emission at 590 nm and 665 nm. A calibration curve was constructed with an external cAMP standard at concentrations ranging from 1 μM to 0.1 pM by plotting the fluorescent intensity ratio from 665 nm emission to the intensity from the 590 nm emission against cAMP concentrations. The potency and activity of a compound to inhibit cAMP production was then determined by fitting to a 4-parametric logistic equation from a plot of cAMP level versus compound concentrations.

Sequence of human FPR2 receptors (P25090 whole entry): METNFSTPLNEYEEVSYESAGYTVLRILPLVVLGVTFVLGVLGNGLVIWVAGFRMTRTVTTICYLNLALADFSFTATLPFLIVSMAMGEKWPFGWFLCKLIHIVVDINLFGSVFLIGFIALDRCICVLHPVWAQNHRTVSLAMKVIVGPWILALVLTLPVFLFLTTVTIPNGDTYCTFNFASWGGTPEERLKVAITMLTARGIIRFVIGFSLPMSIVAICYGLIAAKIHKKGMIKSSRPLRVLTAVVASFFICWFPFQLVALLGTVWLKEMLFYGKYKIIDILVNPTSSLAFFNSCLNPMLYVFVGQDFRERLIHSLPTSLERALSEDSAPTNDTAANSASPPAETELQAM

| Structure (SMILES) | EC50 |
| --- | --- |
| CS(=O)(=O)NCC1(c2ccc(N3CCC[C@@H](NC(=O)Nc4ccc(C(F)(F)F)nc4)C3=O)cc2F)CC1 [Example 2] | ≤ 10 nM |
| O=C(Nc1ccc(C(F)(F)F)nc1)N[C@@H]1CCCN(c2ccc(C3(CO)CC3)cc2)C1=O [Example 3] | 100 to 1250 nM |
| CS(=O)(=O)NCC1(c2ccc(N3CCC[C@@H](NC(=O)Nc4ccc(C(F)(F)F)cn4)C3=O)c(F)c2)CC1 [Example 4] | 10 to 100 nM |
| COc1cnc(NC(=O)N[C@@H]2CCCN(c3ccc(C4(CNS(C)(=O)=O)CC4)cc3)C2=O)cn1 [Example 9] | ≤ 10 nM |
| COc1cnc(NC(=O)N[C@H]2CCCN(c3ccc(C4(CNS(C)(=O)=O)CCC4)cc3)C2=O)cn1 [Example 10] | 10 to 100 nM |
| CS(=O)(=O)NCC1(c2ccc(N3CCC[C@@H](NC(=O)Nc4ncc(C(F)(F)F)cn4)C3=O)cc2)CC1 [Example 16] | 10 to 100 nM |
| CS(=O)(=O)NCC1(c2ccc(N3CCC[C@@H](NC(=O)Nc4cnc(Cl)cn4)C3=O)cc2F)CC1 [Example 19] | ≤ 10 nM |
| CS(=O)(=O)NCC1(c2ccc(N3CCC[C@@H](NC(=O)Nc4ncc(Cl)cc4F)C3=O)cc2F)CC1 [Example 20] | ≤ 10 nM |
| CS(=O)(=O)NCC1(c2ccc(N3CCC[C@@H](NC(=O)Nc4ncc(Cl)cc4Cl)C3=O)cc2F)CC1 [Example 22] | 100 to 1250 nM |
| Cc1cnc(NC(=O)N[C@@H]2CCCN(c3ccc(C4(CNS(C)(=O)=O)CC4)cc3)C2=O)cn1 [Example 25] | ≤ 10 nM |
| CS(=O)(=O)NCC1(c2ccc(N3CCC[C@@H](NC(=O)Nc4ccc(C(F)(F)F)cn4)C3=O)cc2)CCCC1 [Example 29] | 10 to 100 nM |

Second part, the compound after the results:

| EC50 | Structure (SMILES) |
| --- | --- |
| ≤ 10 nM | CS(=O)(=O)NCC1(c2ccc(N3CCC[C@@H](NC(=O)Nc4ccc(C(F)(F)F)nc4)C3=O)cc2)CCC1 [Example 1, (R)—N-((1-(4-(2-Oxo-3-(3-(6-(trifluoromethyl)pyridin-3-yl)ureido)piperidin-1-yl)phenyl)cyclobutyl)methyl)methanesulfonamide] |
| ≤ 10 nM | COc1cnc(NC(=O)N[C@@H]2CCCN(c3ccc(C4(CNS(C)(=O)=O)CC4)c(F)c3)C2=O)cn1 [Example 5] |
| ≤ 10 nM | COc1cnc(NC(=O)N[C@@H]2CCCN(c3ccc(C4(CNS(C)(=O)=O)CCC4)cc3)C2=O)cn1 [Example 7] |
| ≤ 10 nM | Cc1cnc(NC(=O)N[C@@H]2CCCN(c3ccc(C4(CNS(C)(=O)=O)CCC4)cc3)C2=O)cn1 [Example 8] |
| 100 to 1250 nM | COc1cnc(NC(=O)N[C@H]2CCCN(c3ccc(C4(CNS(C)(=O)=O)CC4)cc3)C2=O)cn1 [Example 11] |
| ≤ 10 nM | CS(=O)(=O)NCC1(c2ccc(N3CCC[C@H](NC(=O)Nc4cnc(Cl)cn4)C3=O)cc2)CCC1 [Example 12] |
| 10 to 100 nM | CS(=O)(=O)NCC1(c2ccc(N3CCC[C@@H](NC(=O)Nc4ncc(Cl)cc4Cl)C3=O)cc2)CCC1 [Example 13] |
| ≤ 10 nM | CS(=O)(=O)NCC1(c2ccc(N3CCC[C@@H](NC(=O)Nc4ncc(C(F)(F)F)cc4F)C3=O)cc2)CCC1 [Example 14] |
| 10 to 100 nM | CS(=O)(=O)NCC1(c2ccc(N3CCC[C@H](NC(=O)Nc4ccc(C(F)(F)F)cc4)C3=O)cc2F)CC1 [Example 15] |
| 10 to 100 nM | CS(=O)(=O)NCC1(c2ccc(N3CCC[C@@H](NC(=O)Nc4ncc(C(F)(F)F)cc4F)C3=O)cc2F)CC1 [Example 17] |
| 10 to 100 nM | CS(=O)(=O)NCC1(c2ccc(N3CCC[C@@H](NC(=O)Nc4ccc(OC(F)F)nc4)C3=O)cc2F)CC1 [Example 21] |
| ≤ 10 nM | CS(=O)(=O)NCC1(c2ccc(N3CCC[C@@H](NC(=O)Nc4ccc(Cl)cn4)C3=O)cc2)CC1 [Example 23] |
| ≤ 10 nM | COc1ccc(NC(=O)N[C@@H]2CCCN(c3ccc(C4(CNS(C)(=O)=O)CC4)cc3)C2=O)nc1 [Example 24] |
| 10 to 100 nM | CS(=O)(=O)NCC1(c2ccc(N3CCC[C@@H](NC(=O)Nc4ccc(C(F)(F)F)cn4)C3=O)cc2F)CC1 [Example 26] |
| ≤ 10 nM | CS(=O)(=O)NCC1(c2ccc(N3CCC[C@@H](NC(=O)Nc4ccc(C(F)(F)F)cn4)C3=O)cc2)CCC1 [Example 28] |
